{"source": "patent US6603023B2", "about": "(priority 1996, dated 2003)", "key": {"[1]": {"tested_on": "PC-3 Human Prostate Carcinoma", "test": "PC-3 xenograft", "type": "in vivo, nude mice", "conditions": "dEpoB 30 mg/kg 18 hr i.v. infusion, Taxol 16 mg/kg 6 hr infusion, VBL 2 and VP-16 25 mg/kg i.v. inj"}, "[2]": {"tested_on": "Human CCRF-CEM/VBL Xenograft", "test": "CCRF-CEM/VBL xenograft in scid mice; as to Average weight change: unit not given here", "type": "in vivo, CB-17 scid mice"}, "[3]": {"tested_on": "human mammary carcinoma MX-1 xenograft", "conditions": "for Average Body Weight, Day 7: initial weight, first treatment day; for Note: died (mice died/total): male, athymic nude (nu/nu)", "description": "DMSO was used as a vehicle for epothilones. Each mouse received ≦40 μL DMSO in all experiments.\nAthymic nude mice (nu/nu) were used for MX-1 and MCF-7/Adr human mammary carcinoma xenografts. Mice were obtained from Taconic Laboratory Animals and Service (Germantown, N.Y.: outbred, Swiss background)."}, "[4]": {"conditions": "dose 0.2 i.p. QD d7-10,14,15, day 12"}, "[5]": {"conditions": "dose 0.2 i.p. QD d7-10,14,15, day 17"}, "[6]": {"conditions": "dose 0.2 i.p. QD d7-10,14,15, day 22"}, "[7]": {"conditions": "dose 0.4 i.p. QD d7-10,14,15, day 12"}, "[8]": {"conditions": "dose 0.4 i.p. QD d7-10,14,15, day 17"}, "[9]": {"conditions": "dose 0.4 i.p. QD d7-10,14,15, day 22"}, "[10]": {"conditions": "high doses: dEpoB 25, EpoB 0.6, Taxol 10, Vinblastine 0.4 mg/kg i.p. Q2D from day 7"}, "[11]": {"conditions": "low doses: dEpoB 15, EpoB 0.3, Taxol 5, Vinblastine 0.2 mg/kg i.p. Q2D day 7-15"}}, "note": "Where “and” joins values, the source holds several entries; their conditions need not be identical. Identical values can stand only once. Counter-ions that a name gives are not always drawn. Like-named read-outs stand apart in the source and are kept apart here."}
{"smiles": "CC[C@]1(O)C[C@@H]2CN(CCc3c([nH]c4ccccc34)[C@@](C(=O)OC)(c3cc4c(cc3OC)N(C)[C@H]3[C@@](O)(C(=O)OC)[C@H](OC(C)=O)[C@]5(CC)C=CCN6CC[C@]43[C@@H]65)C2)C1", "note": "[Vinblastine, Vinblastine sulfate]", "values": [{"measurement": "Average Body Weight (change), Day 9", "setting": "[1]", "value": "+1.4 g"}, {"measurement": "Average Body Weight (change), Day 11", "setting": "[1]", "value": "+2.1 g"}, {"measurement": "Average Body Weight (change), Day 13", "setting": "[1]", "value": "+3.0 g"}, {"measurement": "Average Tumor Size (TC), Day 9", "setting": "[1]", "value": 0.37, "unit": "TC"}, {"measurement": "Average Tumor Size (TC), Day 11", "setting": "[1]", "value": 0.13, "unit": "TC"}, {"measurement": "Average Tumor Size (TC), Day 13", "setting": "[1]", "value": 0.03, "unit": "TC"}, {"measurement": "Tumor Disappearance", "setting": "[1]", "value": "1/3"}, {"measurement": "Average Body Weight, Day 5", "setting": "[1]; initial weight", "value": 23.5, "unit": "g"}, {"measurement": "Average weight change", "setting": "[2]; dose 0.2 i.p. QD d7-10,14,15, day 7", "value": "−0.3"}, {"measurement": "Average tumor volume (control = 1.00)", "setting": "[2]; [4]", "value": 0.86}, {"measurement": "Average weight change", "setting": "[2]; [4]", "value": "−0.8"}, {"measurement": "Average tumor volume (control = 1.00)", "setting": "[2]; [5]", "value": 0.66}, {"measurement": "Average weight change", "setting": "[2]; [5]", "value": "−1.4"}, {"measurement": "Average tumor volume (control = 1.00)", "setting": "[2]; [6]", "value": 0.67}, {"measurement": "Average weight change", "setting": "[2]; [6]", "value": "−0.3"}, {"measurement": "Average weight change", "setting": "[2]; dose 0.4 i.p. QD d7-10,14,15, day 7", "value": 0}, {"measurement": "Average tumor volume (control = 1.00)", "setting": "[2]; [7]", "value": 1.02}, {"measurement": "Average weight change", "setting": "[2]; [7]", "value": "−1.2"}, {"measurement": "Average tumor volume (control = 1.00)", "setting": "[2]; [8]", "value": 0.57}, {"measurement": "Average weight change", "setting": "[2]; [8]", "value": "−1.8"}, {"measurement": "Average tumor volume (control = 1.00)", "setting": "[2]; [9]", "value": 0.62}, {"measurement": "Average weight change", "setting": "[2]; [9]", "value": "−0.5"}, {"measurement": "Average Body Weight Change", "setting": "[3]; 0.2 mg/kg i.p. Q2Dx5 from day 7, day 11", "value": "+0.6 g"}, {"measurement": "Average Body Weight Change", "setting": "[3]; 0.2 mg/kg i.p. Q2Dx5 from day 7, day 13", "value": "+1.4 g"}, {"measurement": "Average Body Weight Change", "setting": "[3]; 0.2 mg/kg i.p. Q2Dx5 from day 7, day 15", "value": "+2.3 g"}, {"measurement": "Average Body Weight Change", "setting": "[3]; 0.2 mg/kg i.p. Q2Dx5 from day 7, day 17", "value": "+2.9 g"}, {"measurement": "Average Body Weight Change", "setting": "[3]; 0.4 mg/kg i.p. Q2Dx5 from day 7, day 11", "value": "+0.8 g"}, {"measurement": "Average Body Weight Change", "setting": "[3]; 0.4 mg/kg i.p. Q2Dx5 from day 7, day 13", "value": "+0.5 g"}, {"measurement": "Average Body Weight Change", "setting": "[3]; 0.4 mg/kg i.p. Q2Dx5 from day 7, day 15", "value": "+1.9 g"}, {"measurement": "Average Body Weight Change", "setting": "[3]; 0.4 mg/kg i.p. Q2Dx5 from day 7, day 17", "value": "+2.1 g"}, {"measurement": "Average Tumor Volume (T/C), Day 11", "setting": "[3]; [10]", "value": 0.80, "unit": "T/C"}, {"measurement": "Average Tumor Volume (T/C), Day 13", "setting": "[3]; [10]", "value": 0.56, "unit": "T/C"}, {"measurement": "Average Tumor Volume (T/C), Day 15", "setting": "[3]; [10]", "value": 0.83, "unit": "T/C"}, {"measurement": "Average Tumor Volume (T/C), Day 17", "setting": "[3]; [10]", "value": 0.88, "unit": "T/C"}, {"measurement": "Average Body Weight, Day 7", "setting": "[3]; [10]", "value": 26.4, "unit": "g"}, {"measurement": "Average Body Weight, Day 7", "setting": "[3]; [11]", "value": 25.7, "unit": "g"}, {"measurement": "Average Tumor Volume (T/C), Day 11", "setting": "[3]; [11]", "value": 0.65, "unit": "T/C"}, {"measurement": "Average Tumor Volume (T/C), Day 13", "setting": "[3]; [11]", "value": 0.54, "unit": "T/C"}, {"measurement": "Average Tumor Volume (T/C), Day 15", "setting": "[3]; [11]", "value": 0.56, "unit": "T/C"}, {"measurement": "Average Tumor Volume (T/C), Day 17", "setting": "[3]; [11]", "value": 0.88, "unit": "T/C"}, {"measurement": "Note: died (mice died/total)", "setting": "[3]; mouse, in vivo", "value": "0/7 died"}, {"measurement": "Note: died (mice died/total)", "setting": "[3]; outbred, Swiss background, mouse, in vivo", "value": "1/7 died"}, {"measurement": "Average Tumor Size (T/C)", "setting": "[3]; mouse, in vivo", "value": "0.88 and 0.65 and 0.54 and 0.56 and 0.80 and 0.83"}]}
